Experimental findings from patent publication US11649237B2, “Substituted imidazo[1,5-a]pyrazines for IRE1 inhibition” (Optikira LLC, priority 2017, dated 2023) are described below.

The subject of this assay is XBP-1 splicing in ARPE-19 cells or apoptosis of INS-1 cells expressing mIRE-1. Put plainly: Cellular assay (XBP1 splicing assay or apoptosis assay). Format: cell-based. The following applies: data are for the XBP1 splicing assay or the apoptosis assay (not specified per compound). As for the experimental part:
ARPE-19 cells stably expressing XBP-1 (a.a. 1-376) with nano-luciferase gene sequence linked so it is in frame when XBP-1 is spliced, were cultured in F12 media, 10% FBS, 0.044% sodium bicarbonate, 150 μg/ml hygromycin B and seeded for assays at 5,000 cells in 384 well plates in culture media without hygromycin B and incubated at 37° C./5% CO2. […] After further incubation of 30 minutes thapsigargin was added (final concentration 150 nM) and then another 4 hour incubation. A NanoLuc luciferase assay (Promega) was used according to the manufacturer's instructions to detect the luciferase and luminescence measured on a luminometer (EnVision, PerkinElmer).
Doxycycline (final concentration 100 nM) was added and plates incubated for a further 72 hours. To determine the proportion of apoptotic cells Hoechst 33342 (final concentration 10 μg/mL) was added, then after 30 minutes incubation cells imaged and analyzed on an InCell high content imager.

`CNC1CC=C(c2cnc(N)c3c(-c4ccc(NS(=O)(=O)c5cc(C)ccc5F)c(F)c4)nc(C(C)C)n23)CC1` (centres unmarked) [Example 218, N-(4-{8-amino-5-[4-(methylamino)cyclohex-1-en-1-yl]-3-(propan-2-yl)imidazo[1,5-a]pyrazin-1-yl}-2-fluorophenyl)-2-fluoro-5-methylbenzene-1-sulfonamide] registered an IC50 of 25 nM. This counts as double-digit nanomolar. The same measure for `CNC1CC=C(c2cnc(N)c3c(-c4ccc(NC(=O)Nc5ccc6c(c5)OCCO6)c5ccccc45)nc(C(C)C)n23)CC1` (centres unmarked) [Example 140, 1-(4-(8-amino-3-isopropyl-5-(4-(methylamino)cyclohex-1-en-1-yl)imidazo[1,5-a]pyrazin-1-yl)naphthalen-1-yl)-3-(2,3-dihydrobenzo[b][1,4]dioxin-6-yl)urea]: 78 nM; for `CNC1CC=C(c2cnc(N)c3c(-c4cccc5c(CC(=O)Nc6cccc(F)c6)cccc45)nc(C(C)C)n23)CC1` (centres unmarked) [Example 81, 2-(5-(8-amino-3-isopropyl-5-(4-(methylamino)cyclohex-1-en-1-yl)imidazo[1,5-a]pyrazin-1-yl)naphthalen-1-yl)-N-(3-fluorophenyl)acetamide]: 290 nM. Regarding `CNC1CC=C(c2cnc(N)c3c(-c4ccc(NC(=O)Nc5cncc(OC)c5)cc4F)nc(C(C)C)n23)CC1` (centres unmarked) [Example 148, 1-(4-(8-amino-3-isopropyl-5-(4-(methylamino)cyclohex-1-en-1-yl)imidazo[1,5-a]pyrazin-1-yl)-3-fluorophenyl)-3-(5-methoxypyridin-3-yl)urea], the IC50 was found to be 1300 nM. As for `CNC1CC=C(c2cnc(N)c3c(-c4ccc(NC(=O)Nc5ccccc5)cc4F)nc(C(C)C)n23)CC1` (centres unmarked) [Example 130, 1-(4-(8-amino-3-isopropyl-5-(4-(methylamino)cyclohex-1-en-1-yl)imidazo[1,5-a]pyrazin-1-yl)-3-fluorophenyl)-3-phenylurea], the IC50 was found to be 410 nM. In the case of `CNC1CC=C(c2cnc(N)c3c(-c4ccc(NC(=O)Nc5ccc(F)cc5)c5ccccc45)nc(C(C)C)n23)CC1` (centres unmarked) [Example 145, 1-(4-(8-amino-3-isopropyl-5-(4-(methylamino)cyclohex-1-en-1-yl)imidazo[1,5-a]pyrazin-1-yl)naphthalen-1-yl)-3-(4-fluorophenyl)urea], the IC50 was 74 nM.

In turn, `CNC1CC=C(c2cnc(N)c3c(-c4ccc(NC(=O)Nc5ccccc5)c5ccccc45)nc(C(C)C)n23)CC1` (centres unmarked) [Example 121, 1-(4-(8-Amino-3-isopropyl-5-(4-(methylamino)cyclohex-1-en-1-yl)imidazo[1,5-a]pyrazin-1-yl)naphthalen-1-yl)-3-phenylurea] registered an IC50 of 89 nM. Consider `CC(C)c1nc(-c2ccc(NS(=O)(=O)c3ccccc3Cl)c(F)c2)c2c(N)ncc(C3=CCC(O)CC3)n12` (centres unmarked) [Example 225, N-(4-(8-amino-5-(4-hydroxycyclohex-1-en-1-yl)-3-isopropylimidazo[1,5-a]pyrazin-1-yl)-2-fluorophenyl)-2-chlorobenzenesulfonamide], for which the IC50 is 250 nM. Compound `CNC1CC=C(c2cnc(N)c3c(-c4ccc(NC(=O)Nc5ccc(OC)c(OC)c5)c5ccccc45)nc(C(C)C)n23)CC1` (centres unmarked) [Example 143, 1-(4-(8-amino-3-isopropyl-5-(4-(methylamino)cyclohex-1-en-1-yl)imidazo[1,5-a]pyrazin-1-yl)naphthalen-1-yl)-3-(3,4-dimethoxyphenyl)urea] yielded an IC50 of 210 nM. Consider `CNC1CC=C(c2cnc(N)c3c(-c4ccc(CC(=O)Nc5cncc(OC)c5)c5ccccc45)nc(C(C)C)n23)CC1` (centres unmarked) [Example 69, 2-(4-(8-amino-3-isopropyl-5-(4-(methylamino)cyclohex-1-en-1-yl)imidazo[1,5-a]pyrazin-1-yl)naphthalen-1-yl)-N-(5-methoxypyridin-3-yl)acetamide], for which the midpoint of inhibition, the IC50, lay at 350 nM.

The compound `CNC1CC=C(c2cnc(N)c3c(-c4ccc(NS(=O)(=O)Cc5ccccc5Cl)c(F)c4)nc(C(C)C)n23)CC1` (centres unmarked) [Example 169, N-(4-(8-Amino-3-isopropyl-5-(4-(methylamino)cyclohex-1-en-1-yl)imidazo[1,5-a]pyrazin-1-yl)-2-fluorophenyl)-1-(2-chlorophenyl)methanesulfonamide] returned an IC50 of 31 nM. `CNC1CC=C(c2cnc(N)c3c(-c4ccc(NC(=O)Nc5ccsc5)c5ccccc45)nc(C(C)C)n23)CC1` (centres unmarked) [Example 150, 1-(4-(8-amino-3-isopropyl-5-(4-(methylamino)cyclohex-1-en-1-yl)imidazo[1,5-a]pyrazin-1-yl)naphthalen-1-yl)-3-(thiophen-3-yl)urea] gave an IC50 of 90 nM. Regarding `Cc1cccc2nc(Cc3ccc(-c4nc(C(C)C)n5c(CN6CCNCC6)cnc(N)c45)c4ccccc34)[nH]c12` [Example 37, 3-isopropyl-1-(4-((7-methyl-1H-benzo[d]imidazol-2-yl)methyl)naphthalen-1-yl)-5-(piperazin-1-ylmethyl)imidazo[1,5-a]pyrazin-8-amine], the IC50 amounted to 320 nM. Next, `CNC1CC=C(c2cnc(N)c3c(-c4ccc(CC(=O)Nc5ccccn5)c5ccccc45)nc(C(C)C)n23)CC1` (centres unmarked) [Example 68, 2-(4-(8-amino-3-isopropyl-5-(4-(methylamino)cyclohex-1-en-1-yl)imidazo[1,5-a]pyrazin-1-yl)naphthalen-1-yl)-N-(pyridin-2-yl)acetamide]: 430 nM; `CNC1CC=C(c2cnc(N)c3c(-c4ccc(NC(=O)Nc5cccc(F)c5)cc4F)nc(C(C)C)n23)CC1` (centres unmarked) [Example 129, 1-(4-(8-amino-3-isopropyl-5-(4-(methylamino)cyclohex-1-en-1-yl)imidazo[1,5-a]pyrazin-1-yl)-3-fluorophenyl)-3-(3-fluorophenyl)urea]: 280 nM; `CNC1CC=C(c2cnc(N)c3c(-c4ccc(NC(=O)Nc5ccccc5F)c5ccccc45)nc(C(C)C)n23)CC1` (centres unmarked) [Example 152, 1-(4-(8-amino-3-isopropyl-5-(4-(methylamino)cyclohex-1-en-1-yl)imidazo[1,5-a]pyrazin-1-yl)naphthalen-1-yl)-3-(2-fluorophenyl)urea]: 100 nM.

Compound `CNC1CC=C(c2cnc(N)c3c(-c4ccc(NC(=O)NCc5ccccc5)c5ccccc45)nc(C(C)C)n23)CC1` (centres unmarked) [Example 139, 1-(4-(8-amino-3-isopropyl-5-(4-(methylamino)cyclohex-1-en-1-yl)imidazo[1,5-a]pyrazin-1-yl)naphthalen-1-yl)-3-benzylurea] had an IC50 of 380 nM. Next, `CNC1CC=C(c2cnc(N)c3c(-c4ccc(NC(=O)Nc5ccncc5)c5ccccc45)nc(C(C)C)n23)CC1` (centres unmarked) [Example 144, 1-(4-(8-amino-3-isopropyl-5-(4-(methylamino)cyclohex-1-en-1-yl)imidazo[1,5-a]pyrazin-1-yl)naphthalen-1-yl)-3-(pyridin-4-yl)urea]: 490 nM; `CC(C)c1nc(-c2ccc(NS(=O)(=O)Cc3ccccc3Cl)c(F)c2)c2c(N)ncc(C3=CCC(O)CC3)n12` (centres unmarked) [Example 224, N-(4-(8-amino-5-(4-hydroxycyclohex-1-en-1-yl)-3-isopropylimidazo[1,5-a]pyrazin-1-yl)-2-fluorophenyl)-1-(2-chlorophenyl)methanesulfonamide]: 42 nM; `CNC1CC=C(c2cnc(N)c3c(-c4ccc(NC(=O)Nc5cncc(F)c5)cc4F)nc(C(C)C)n23)CC1` (centres unmarked) [Example 149, 1-(4-(8-amino-3-isopropyl-5-(4-(methylamino)cyclohex-1-en-1-yl)imidazo[1,5-a]pyrazin-1-yl)-3-fluorophenyl)-3-(5-fluoropyridin-3-yl)urea]: 780 nM.

What is called IC50 is the concentration at which inhibition is half-maximal. Low values mean greater potency in that assay, high ones weaker potency in that assay.
